Test results as given in patent US20050119288A1, “Dosing schedule for a novel anticancer agent” (Pfizer Inc, priority 2003, published 2005).
Marks after values point to notes of the source that are not given here.

Columns and labels:
FRE/erbB2 tumors = assay: FRE/erbB2 tumor growth in athymic mice; assay type: in vivo, murine; conditions: for % GI (% Growth Inhibition): day 7
Excerpt: The in vivo anti-tumor activity of the compounds for use in the methods of the present invention can be determined by the amount of inhibition of tumor growth by a test compound relative to a control. The tumor growth inhibitory effects of various compounds can be measured according to the method of Corbett T. H., et al., “Tumor Induction Relationships in Development of Transplantable Cancers of the Colon in Mice for Chemotherapy Assays, with a Note on Carcinogen Structure”, Cancer Res., 35, 2434-2439 (1975) and Corbett T. H., et al., “A Mouse Colon-tumor Model for Experimental Therapy”, Cancer Chemother. Rep. (Part 2)”, 5, 169-186 (1975), with slight modifications. Tumors can be induced in the left flank of mice by subcutaneous (sc) injection of 1-5 million log phase cultured tumor cells suspended in 0.1 ml RPMI 1640 medium. After sufficient time has elapsed for the tumors to become palpable (˜100-150 mm^3 in size/5-6 mm in diameter) the test animals (athymic female mice) are treated with test compound (formulated at a concentration of 10 to 15 mg/ml in 5 Gelucire or 0.5% methyl cellulose) by the intravenous (iv) or oral (po) route of administration once or twice daily for 7 to 29 consecutive days. In order to determine an anti-tumor effect, the tumor is measured in millimeters with a Vernier caliper across two diameters and the tumor size (mm^3) is calculated using the formula: Tumor size (mm^3)=(W×W)/2×L (L=length and W=width), according to the methods of Geran, R. I., et al. “Protocols for Screening Chemical Agents and Natural Products Against Animal Tumors and Other Biological Systems”, Third Edition, Cancer Chemother. Rep., 3, 1-104 (1972). Results are expressed as percent inhibition, according to the formula: Inhibition Growth (%)=[100-{(% Growth of Treated/% Growth of Control)×100}]. The flank site of tumor implantation provides reproducible dose/response effects for a variety of chemotherapeutic agents, and the method of measurement (tumor diameter) is a reliable method for assessing tumor growth rates.
(§1) An objective of the pre-clinical investigations was to determine whether the Cmax or area under the curve (AUC) of the test compound is critical for the anti-tumor efficacy. An additional goal was to establish a pharmacokinetics/pharmacodynamics (PK/PD) relationship in the FRE/erbB2 tumor model. The FRE/erbB2 is an engineered murine tumor model, which over-expresses human erbB2 with a trans-membrane mutation.

[1] = test system: p-erbB2 (the phosphorylated form of erbB2 receptor); assay: p-erbB2 reduction in FRE/erbB2 tumors; assay type: in vivo, human
Excerpt: as §1

[2] = Pharmacokinetics in SK-OV-3 tumor-bearing mice; assay type: in vivo; conditions: for Cave0-4 h / AUC(0-t) / Cmax: PO; for AUC(0-t) / Cmax: female, athymic, mouse, blood, po; for AUC(0-t): read-out: AUC0-4 h; for Cmax: read-out: Cmax 0.5 h
Method: SK-OV-3 cells obtained from ATCC (Rockville, Md.) were grown in McCoy's medium containing 10% fetal bovine serum and pen/strep. Exponentially growing cells were harvested and inoculated SC (5 million cells/animal) into female athymic mice. The tumor measurements and body weight changes were obtained on days 1, 3, 6, 10, 13 and 18. Tumor volume was calculated by the following formula: Tumor volume (mm^3)═(W×W)/2×L (L=length & W=width). Blood samples (˜50 μl) were isolated at 0.5, 1, 2, 4 and 8 hrs after dosing on day 18 for PK-analysis. Tumors were isolated at 0.5 hr post-dosing on day 18 for PD-analysis by ELISA. The p-erbB2 reduction, tumor volume and body weight changes in control and test compound treated animals are shown below in Table 2.

[3] = Pharmacokinetics in BT-474 tumor-bearing mice; assay type: in vivo; conditions: for Cave0-4 h: PO, day 22; for AUC(0-t) / Cmax: female, athymic, mouse, blood, po; for Cmax: day 22, read-out: Cmax 0.5 h
Method: Exponentially growing BT-474 cells (RPMI 1640 with 10 mM HEPES, 10% FBS, and pen/strep [Gibco]) were harvested and inoculated SC (5 million cells/animal) into female athymic mice. Trochar pieces of BT-474 tumors were then implanted into the right flank of animals. BT-474 tumor bearing mice (50-320 mm^3 in size, N=40) were randomized in 7 groups consisting 5-6 animals each. Animals were treated with vehicle (PO, BID) or the test compound (PO, QD or BID) as described in Table 4. The tumor measurements and body weight changes were obtained on days 1, 6, 11, 15 and 22. Tumor volume was calculated by the following formula: Tumor volume (mm^3)═(W×W)/2×L (L=length & W=width). Blood samples (˜50 μl) were isolated at 0.5, 1, 2, 4 and 8 hrs after dosing on day 22 for PK-analysis. Tumors were isolated at 0.5 hr post-dosing on day 22 for PD-analysis by ELISA.

[4] = Plasma concentration in FRE/erbB2 tumor-bearing mice
Method: The test compound was either administered using tail vein infusion or orally.
A 1.15 mg/ml solution of the test compound was infused IV at 550 μl/hr for 2 minute ramped infusions followed by 50 μl/hr for 15 min or 4 hour daily infusions. (Projection was based on Cl of the test compound). Athymic female mice bearing FRE/erbB2 tumors (˜100 mm^3 in size) were treated with vehicle, the test compound orally or the test compound intravenously. […] The study was carried out for 7 days. Plasma and tumor samples were isolated for PK and PD analysis at the termination of study.

Structure (SMILES): COCC(=O)NC/C=C/c1ccc2ncnc(Nc3ccc(Oc4ccc(C)nc4)c(C)c3)c2c1 [Test Compound, E-2-Methoxy-N-(3-{4-(3-methyl-4-(6-methyl-pyridin-3-yloxy)-phenylamino)-quinazolin-6-yl}-allyl)-acetamide]
- Tumor vol. Day 1 (Mean ± SE) (FRE/erbB2 tumors; 1.4 mg/kg IV, QD, 15 min/day): 121 ± 24 mm^3
- Tumor vol. Day 7 (Mean ± SE) (FRE/erbB2 tumors; 1.4 mg/kg IV, QD, 15 min/day): 749 ± 178 mm^3
- % GI (% Growth Inhibition) (FRE/erbB2 tumors; 1.4 mg/kg IV, QD, 15 min/day): 34%
- % GI (% Growth Inhibition) (FRE/erbB2 tumors; 1.4 mg/kg IV, QD, 15 min/day, listed as test compound): approximately 34%
- Tumor vol. Day 1 (Mean ± SE) (FRE/erbB2 tumors; 10.7 mg/kg IV, 4 hr/day): 117 ± 23 mm^3
- Tumor vol. Day 7 (Mean ± SE) (FRE/erbB2 tumors; 10.7 mg/kg IV, 4 hr/day): 273 ± 81 mm^3
- % GI (% Growth Inhibition) (FRE/erbB2 tumors; 10.7 mg/kg IV, 4 hr/day): 76%
- Tumor vol. Day 1 (Mean ± SE) (FRE/erbB2 tumors; 25 mg/kg PO, QD): 113 ± 18 mm^3
- Tumor vol. Day 7 (Mean ± SE) (FRE/erbB2 tumors; 25 mg/kg PO, QD): 531 ± 101 mm^3
- % GI (% Growth Inhibition) (FRE/erbB2 tumors; 25 mg/kg PO, QD, compare to Vehicle (IV) group): 54* %
- % GI (% Growth Inhibition) (FRE/erbB2 tumors; 25 mg/kg PO, QD, compare to Vehicle (IV) group, listed as test compound): Approximately 54%
- FRE tumor volume in treated mice relative to control (FRE/erbB2 tumors; 25 mg/kg orally once a day, seven days of treatment (FIG. 1)): about half of the control
- tumor volume increase relative to vehicle control (FRE/erbB2 tumors; about 10 mg/kg IV for seven days over a four hour period each day (FIG. 2)): less than 24%
- tumor volume increase relative to vehicle control (FRE/erbB2 tumors; rapid infusion of about 1.4 mg/kg daily over about 15 min/day (FIG. 2)): less than 66%
- % p-erbB2 reduction ([1]; 1.4 mg/kg IV, QD, 15 min/day): 48%
- % p-erbB2 reduction ([1]; 10.7 mg/kg IV, 4 hr/day): 53%
- % p-erbB2 reduction ([1]; 25 mg/kg PO, QD, termination of 7 day study): 34%
- p-erbB2 reduction ([1]; span over the IV groups 15 min/day and 4 hr/day): 48-53%
- Cave0-4 h ([2]; 25 mg/kg, BID, day 18): 390 ng/mL
- AUC0-4 h and Cave0-4 h, QD group compared to BID dosed group ([2]; 50 mg/kg QD vs 25 mg/kg BID, day 18): approximately 2 fold
- Cave0-4 h ([2]; 50 mg/kg, BID, day 18): 1050 ng/mL
- Cave0-4 h ([2]; 50 mg/kg, QD, day 18): 853 ng/mL
- Cave0-4 h ([2]; 100 mg/kg, BID, day 18): 2330 ng/mL
- Cave0-4 h ([2]; 100 mg/kg, QD, day 18): 4080 ng/mL
- Oral absorption ([2]; 200 mg/kg QD dosing): non-linear
- Cave0-4 h ([2]; 200 mg/kg, QD, day 18): 3780 ng/mL
- Cmax, 50 mg/kg QD compared to 25 mg/kg BID ([2]; day 18): approximately 2 fold
- AUC(0-t) ([2]; 25 mg/kg, BID, day 18): 1560 ng·h/mL
- Cmax ([2]; 25 mg/kg, BID, day 18): 1780 ng/mL
- AUC(0-t) ([2]; 50 mg/kg, BID, day 18): 4180 ng·h/mL
- Cmax ([2]; 50 mg/kg, BID, day 18): 3880 ng/mL
- AUC(0-t) ([2]; 50 mg/kg, QD, day 18): 3410 ng·h/mL
- Cmax ([2]; 50 mg/kg, QD, day 18): 3640 ng/mL
- AUC(0-t) ([2]; 100 mg/kg, BID, day 18): 9330 ng·h/mL
- Cmax ([2]; 100 mg/kg, BID, day 18): 8060 ng/mL
- AUC(0-t) ([2]; 100 mg/kg, QD, day 18): 16300 ng·h/mL
- Cmax ([2]; 100 mg/kg, QD, day 18): 12100 ng/mL
- AUC(0-t) ([2]; 200 mg/kg, QD, day 18): 15100 ng·h/mL
- Cmax ([2]; 200 mg/kg, QD, day 18): 10200 ng/mL
- Cave0-4 h ([3]; 15 mg/kg, BID): 120 ng/mL
- Cave0-4 h ([3]; 30 mg/kg, BID, estimated based on the extrapolated concentration at 4 hr from 2 hr and 8 hr exposures): 360 ng/mL
- Cave0-4 h ([3]; 30 mg/kg, QD, estimated based on the extrapolated concentration at 4 hr from 2 hr and 8 hr exposures): 320 ng/mL
- Cave0-4 h ([3]; 50 mg/kg, BID): 1320 ng/mL
- Cave0-4 h ([3]; 50 mg/kg, QD, estimated based on the extrapolated concentration at 4 hr from 2 hr and 8 hr exposures): 1060 ng/mL
- AUC(0-t) ([3]; 15 mg/kg, BID, day 22, read-out: AUC0-4 h): 480 ng·h/mL
- Cmax ([3]; 15 mg/kg, BID): 616 ng/mL
- Cmax ([3]; 15 mg/kg, QD): 250 ng/mL
- AUC(0-t) ([3]; 30 mg/kg, BID, day 22, estimated based on the extrapolated concentration at 4 hr from 2 hr and 8 hr exposures, read-out: AUC0-4 h): 1440 ng·h/mL
- Cmax ([3]; 30 mg/kg, BID): 1570 ng/mL
- AUC(0-t) ([3]; 30 mg/kg, QD, day 22, estimated based on the extrapolated concentration at 4 hr from 2 hr and 8 hr exposures, read-out: AUC0-4 h): 1280 ng·h/mL
- Cmax ([3]; 30 mg/kg, QD): 1800 ng/mL
- AUC(0-t) ([3]; 50 mg/kg, BID, day 22, read-out: AUC0-4 h): 5280 ng·h/mL
- Cmax ([3]; 50 mg/kg, BID): 6170 ng/mL
- AUC(0-t) ([3]; 50 mg/kg, QD, day 22, estimated based on the extrapolated concentration at 4 hr from 2 hr and 8 hr exposures, read-out: AUC0-4 h): 4220 ng·h/mL
- Cmax ([3]; 50 mg/kg, QD): 5890 ng/mL
- Plasma Concentration (Mean ± SE) ([4]; 10.7 mg/kg IV, 4 hr/day): 473 ± 141 ng/mL
- Plasma Concentration (Mean ± SE) ([4]; 10.7 mg/kg IV, 4 hr/day, listed as test compound): ~500 ng/mL
- Plasma Concentration (Mean ± SE) ([4]; 25 mg/kg PO, QD, 0.5 h post-dosing on day 7): 1460 ± 170 ng/mL
